Experimental findings from patent US9012443B2 (Amgen Inc., priority 2011, dated 2015) are described below.

pIC50: −log10 of the molar value.

In one experiment the target is T1, Nav 1.7 (Homo sapiens (Human), UniProt Q15858). Put plainly: Nav 1.7 in vitro PX assay (PatchXpress whole cell voltage clamp). Format: cell-based. The conditions noted are these: 293 cells, human Nav1.7, partially inactivated state; read-out: Nav1.7 PX IC50 IP. The procedure: Nav 1.7 In Vitro PX Assay
T1 sequence (Q15858 whole entry): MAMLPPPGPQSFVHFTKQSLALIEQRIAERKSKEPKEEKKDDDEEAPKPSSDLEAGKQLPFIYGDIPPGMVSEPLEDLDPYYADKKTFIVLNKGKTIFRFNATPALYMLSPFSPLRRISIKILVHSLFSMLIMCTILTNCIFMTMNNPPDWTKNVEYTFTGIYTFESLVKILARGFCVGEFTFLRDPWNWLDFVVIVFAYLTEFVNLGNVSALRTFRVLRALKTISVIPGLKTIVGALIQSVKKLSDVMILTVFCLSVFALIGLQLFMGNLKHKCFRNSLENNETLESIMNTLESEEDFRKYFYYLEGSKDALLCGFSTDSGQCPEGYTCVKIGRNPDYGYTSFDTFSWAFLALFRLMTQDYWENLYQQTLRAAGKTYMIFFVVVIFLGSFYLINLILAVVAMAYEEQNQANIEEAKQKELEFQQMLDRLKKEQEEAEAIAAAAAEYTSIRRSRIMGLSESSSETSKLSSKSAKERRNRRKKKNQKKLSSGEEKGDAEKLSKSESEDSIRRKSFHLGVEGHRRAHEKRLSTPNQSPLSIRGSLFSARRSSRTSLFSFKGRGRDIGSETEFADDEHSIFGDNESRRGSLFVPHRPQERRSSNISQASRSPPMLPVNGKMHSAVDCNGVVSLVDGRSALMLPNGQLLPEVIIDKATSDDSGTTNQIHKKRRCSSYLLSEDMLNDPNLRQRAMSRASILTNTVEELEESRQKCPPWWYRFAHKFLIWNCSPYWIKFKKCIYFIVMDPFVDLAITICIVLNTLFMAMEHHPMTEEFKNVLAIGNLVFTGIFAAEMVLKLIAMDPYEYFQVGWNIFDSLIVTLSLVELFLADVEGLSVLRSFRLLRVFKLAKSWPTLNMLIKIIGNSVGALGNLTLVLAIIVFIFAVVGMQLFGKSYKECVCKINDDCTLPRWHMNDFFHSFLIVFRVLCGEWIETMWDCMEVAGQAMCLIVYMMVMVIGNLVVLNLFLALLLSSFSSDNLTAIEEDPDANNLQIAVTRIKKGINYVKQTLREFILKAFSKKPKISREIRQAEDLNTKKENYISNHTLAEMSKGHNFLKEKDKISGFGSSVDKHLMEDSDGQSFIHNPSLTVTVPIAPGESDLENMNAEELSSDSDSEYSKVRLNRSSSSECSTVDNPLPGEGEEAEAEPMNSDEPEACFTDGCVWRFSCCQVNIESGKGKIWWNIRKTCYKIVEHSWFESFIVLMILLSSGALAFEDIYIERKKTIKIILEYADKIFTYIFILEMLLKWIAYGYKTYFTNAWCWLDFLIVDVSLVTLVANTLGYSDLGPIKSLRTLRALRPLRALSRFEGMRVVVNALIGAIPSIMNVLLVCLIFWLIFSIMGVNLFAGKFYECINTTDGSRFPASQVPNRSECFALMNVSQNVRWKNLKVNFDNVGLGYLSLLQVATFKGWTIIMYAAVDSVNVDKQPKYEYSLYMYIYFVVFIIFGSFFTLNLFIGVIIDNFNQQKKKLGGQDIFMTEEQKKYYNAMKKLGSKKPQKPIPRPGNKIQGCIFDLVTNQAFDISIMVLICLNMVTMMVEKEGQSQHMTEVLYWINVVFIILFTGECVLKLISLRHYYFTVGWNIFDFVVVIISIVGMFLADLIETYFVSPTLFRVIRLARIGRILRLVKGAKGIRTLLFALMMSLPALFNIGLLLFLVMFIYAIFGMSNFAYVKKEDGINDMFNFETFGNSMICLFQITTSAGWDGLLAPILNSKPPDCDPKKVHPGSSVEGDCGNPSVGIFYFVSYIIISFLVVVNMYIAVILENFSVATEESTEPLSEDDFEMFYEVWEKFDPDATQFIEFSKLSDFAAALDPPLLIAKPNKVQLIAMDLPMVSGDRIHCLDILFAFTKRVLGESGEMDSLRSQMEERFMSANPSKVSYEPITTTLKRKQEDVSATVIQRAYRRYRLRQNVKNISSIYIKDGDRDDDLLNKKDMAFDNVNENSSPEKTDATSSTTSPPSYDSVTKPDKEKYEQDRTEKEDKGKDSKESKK
293 cells stably transfected with human Nav1.7 were recorded in whole cell voltage clamp mode with the PatchXpress automated electrophysiology system (Molecular Devices, LLC, Sunnyvale, Calif.). Compound effects were measured on a partially inactivated state of the sodium channel. Cells were clamped to a holding potential yielding 20 to 50% inactivation. To elicit sodium current, channels were activated by pulsing to −10 mV for 20 msec. […] A single concentration of test compound was applied to cells for a duration of 3 minutes. Peak sodium current was measured at the end of the compound addition period to determine percent inhibition. Three to five cells were tested per concentration, and IC50 curves were fitted to percent inhibition as a function of concentration.
Consider `COc1cc(-c2cccnc2C)ccc1-c1nccc2cc(S(=O)(=O)Nc3ccncn3)ccc12` [Example 476, 1-(2-METHOXY-4-(2-METHYLPYRIDIN-3-YL)PHENYL)-N-(PYRIMIDIN-4-YL)ISOQUINOLINE-6-SULFONAMIDE], for which the pIC50 is 5.54.
In the case of `COc1cc(-c2ccc(C)nc2)ccc1-c1nccc2cc(S(=O)(=O)Nc3ccncn3)ccc12` [Example 477, 1-(2-METHOXY-4-(6-METHYLPYRIDIN-3-YL)PHENYL)-N-(PYRIMIDIN-4-YL)ISOQUINOLINE-6-SULFONAMIDE], the pIC50 is 5.39.
The same measure, in the same setting: the result for `COc1cc(-c2cncc(C)c2)ccc1-c1nccc2cc(S(=O)(=O)Nc3ccncn3)ccc12` [Example 478, 1-(2-METHOXY-4-(5-METHYLPYRIDIN-3-YL)PHENYL)-N-(PYRIMIDIN-4-YL)ISOQUINOLINE-6-SULFONAMIDE] reads 5.44; that for `COc1cc(-c2c(C)ccnc2F)ccc1-c1nccc2cc(S(=O)(=O)Nc3ccncn3)ccc12` [Example 480, 1-(4-(2-FLUORO-4-METHYLPYRIDIN-3-YL)-2-METHOXYPHENYL)-N-(PYRIMIDIN-4-YL)ISOQUINOLINE-6-SULFONAMIDE], 5.56.
Still for that read-out and setting: the result for `COc1cc(-c2cnc(F)c(C)c2)ccc1-c1nccc2cc(S(=O)(=O)Nc3ccncn3)ccc12` [Example 481, 1-(4-(6-FLUORO-5-METHYLPYRIDIN-3-YL)-2-METHOXYPHENYL)-N-(PYRIMIDIN-4-YL)ISOQUINOLINE-6-SULFONAMIDE] reads 6.10.
On to `COc1cc(-c2cccnc2OC)ccc1-c1nccc2cc(S(=O)(=O)Nc3ccncn3)ccc12` [Example 482, 1-(2-METHOXY-4-(2-METHOXYPYRIDIN-3-YL)PHENYL)-N-(PYRIMIDIN-4-YL)ISOQUINOLINE-6-SULFONAMIDE], for which the pIC50 is 6.11.
The same measure, in the same setting: the result for `COc1ccc(-c2ccc(-c3nccc4cc(S(=O)(=O)Nc5ccncn5)ccc34)c(OC)c2)cn1` [Example 483, 1-(2-METHOXY-4-(6-METHOXYPYRIDIN-3-YL)PHENYL)-N-(PYRIMIDIN-4-YL)ISOQUINOLINE-6-SULFONAMIDE] reads 5.85; that for `COc1cc(-c2ccc3[nH]ccc3c2)ccc1-c1nccc2cc(S(=O)(=O)Nc3ccncn3)ccc12` [Example 489, 1-(4-(1H-INDOL-5-YL)-2-METHOXYPHENYL)-N-(PYRIMIDIN-4-YL)ISOQUINOLINE-6-SULFONAMIDE], 5.74; that for `COc1nc(-c2ccc(F)c(F)c2)ccc1-c1nccc2cc(S(=O)(=O)Nc3ccncn3)ccc12` [Example 499, 1-(6-(3,4-DIFLUOROPHENYL)-2-METHOXYPYRIDIN-3-YL)-N-(PYRIMIDIN-4-YL)ISOQUINOLINE-6-SULFONAMIDE], 6.08.
Regarding `COc1ccc(Cl)cc1-c1n[nH]c(=O)c2cc(S(=O)(=O)Nc3ccncn3)ccc12` [Example 504, 1-(5-CHLORO-2-METHOXYPHENYL)-4-OXO-N-(PYRIMIDIN-4-YL)-3,4-DIHYDROPHTHALAZINE-6-SULFONAMIDE], the negative logarithm of the IC50 (pIC50) is 5.80.
Take `COc1cc(C(F)(F)F)ccc1-c1n[nH]c(=O)c2cc(S(=O)(=O)Nc3ccncn3)ccc12` [Example 506, 1-(2-METHOXY-4-(TRIFLUOROMETHYL)PHENYL)-4-OXO-N-(PYRIMIDIN-4-YL)-3,4-DIHYDROPHTHALAZINE-6-SULFONAMIDE]: the pIC50 was 5.52.
Still for that read-out and setting: the figure for `COc1ccccc1-c1n[nH]c(=O)c2cc(S(=O)(=O)Nc3ncns3)ccc12` [Example 508, 1-(2-METHOXYPHENYL)-4-OXO-N-(1,2,4-THIADIAZOL-5-YL)-3,4-DIHYDROPHTHALAZINE-6-SULFONAMIDE] is 5.89; for `COc1cc(C2(F)COC2)ccc1-c1nc(C)nc2cc(S(=O)(=O)Nc3nccs3)ccc12` [Example 516, 4-(4-(3-FLUOROOXETAN-3-YL)-2-METHOXYPHENYL)-2-METHYL-N-(THIAZOL-2-YL)QUINAZOLINE-7-SULFONAMIDE] it is 5.98; for `COc1cc(C#N)ccc1-c1nc(C)nc2cc(S(=O)(=O)Nc3nccs3)ccc12` [Example 517, 4-(4-CYANO-2-METHOXYPHENYL)-2-METHYL-N-(THIAZOL-2-YL)QUINAZOLINE-7-SULFONAMIDE] it is 5.89.
Still for that read-out and setting: the figure for `COc1cc(C(F)(F)F)ccc1-c1nc(C)nc2cc(S(=O)(=O)Nc3ccncn3)ccc12` [Example 518, 4-(2-METHOXY-4-(TRIFLUOROMETHYL)PHENYL)-2-METHYL-N-(PYRIMIDIN-4-YL)QUINAZOLINE-7-SULFONAMIDE] is 5.59; for `COc1cc(Cl)ccc1-c1ncnc2cc(S(=O)(=O)Nc3ccncn3)ccc12` [Example 526, 4-(4-CHLORO-2-METHOXYPHENYL)-N-(PYRIMIDIN-4-YL)QUINAZOLINE-7-SULFONAMIDE] it is 5.64.
`O=S(=O)(Nc1nccs1)c1ccc2c(-c3ccc(C(F)(F)F)cc3O)ncnc2c1` [Example 533, 4-(2-HYDROXY-4-(TRIFLUOROMETHYL)PHENYL)-N-(THIAZOL-2-YL)QUINAZOLINE-7-SULFONAMIDE]: the pIC50 was 5.39.
The same measure, in the same setting: the result for `COC[C@H]1CCCN1c1ncnc2cc(S(=O)(=O)Nc3nccs3)ccc12` [Example 534, (R)-4-(2-(METHOXYMETHYL)PYRROLIDIN-1-YL)-N-(THIAZOL-2-YL)QUINAZOLINE-7-SULFONAMIDE] reads 4.53; that for `COc1ncc(Cl)cc1-c1ncnc2cc(S(=O)(=O)Nc3nccs3)ccc12` [Example 541, 4-(5-CHLORO-2-METHOXYPYRIDIN-3-YL)-N-(THIAZOL-2-YL)QUINAZOLINE-7-SULFONAMIDE], 5.74.
Regarding `Cc1cc(C#N)ccc1-c1ncnc2cc(S(=O)(=O)Nc3nccs3)ccc12` [Example 542], the pIC50 was 5.30.
Take `COc1cc(C(F)(F)F)ccc1-c1nc(=O)[nH]c2cc(S(=O)(=O)Nc3nccs3)ccc12` [Example 543, 4-(2-METHOXY-4-(TRIFLUOROMETHYL)PHENYL)-2-OXO-N-(THIAZOL-2-YL)-1,2-DIHYDROQUINAZOLINE-7-SULFONAMIDE]: the pIC50 was 5.34.
Still for that read-out and setting: the result for `COc1cc(C(F)(F)F)ccc1-c1c[nH]c(=O)c2cc(S(=O)(=O)Nc3nccs3)ccc12` [Example 544, 4-(2-METHOXY-4-(TRIFLUOROMETHYL)PHENYL)-1-OXO-N-(THIAZOL-2-YL)-1,2-DIHYDROISOQUINOLINE-7-SULFONAMIDE] reads 6.15.

The next experiment deals with T1, Nav 1.7. Kind of experiment: Nav 1.7 IWQ in vitro assay (IonWorks Quattro population patch-clamp). Format: cell-based. As to conditions: 293 cells stably transfected with Nav 1.7; first part of table; read-out: Nav 1.7 IWQ IC50. On the procedure:
Nav 1.7 or Nav 1.5 IWQ In Vitro Assay
293 Cells stably transfected with either Nav 1.7 or Nav 1.5 were recorded in population patch-clamp mode with the IonWorks® Quattro automated electrophysiology system in accordance with the manufacturer's specifications (Molecular Devices, LLC, Sunnyvale, Calif.). Sodium channel currents were measured in response to a train of depolarizations that induced successively greater inactivation.
Cells were then left unclamped for a period of 3 to 8 minutes while a single concentration of test compound was added. Cells were then reclamped and put through the same voltage protocol. Current at the end of the 26th pulse to −20 mV was subtracted from the peak current evoked by the 26th pulse to −20 mV to correct for leak current. Percent block was calculated for each concentration in duplicate, and IC50 curves were fitted to percent block as a function of concentration.
Consider `O=S(=O)(Nc1ncns1)c1ccc2c(N3CCOC(c4ccccc4)C3)cccc2c1` (racemic) [Example 14 (mixture of isomers)], for which the pIC50 is 6.52.
Consider `O=S(=O)(Nc1ncns1)c1ccc2c(N3CCOC(c4ccccc4)C3)cccc2c1` (single isomer, unassigned) [14 (isomer 1), 5-(2-phenylmorpholino)-N-(1,2,4-thiadiazol-5-yl)naphthalene-2-sulfonamide], for which the pIC50 is 6.28.
On the same count and under the same terms, the result for `Cc1ccc(-c2cccc3cc(S(=O)(=O)Nc4ncns4)ccc23)c(Cl)c1` [Example 6] reads 6.47; that for `O=S(=O)(Nc1ncns1)c1ccc2c(-c3ccncc3)cccc2c1` [Example 7], 5.11.
With `O=S(=O)(Nc1ncns1)c1ccc2c(N3CCOCC3)cccc2c1` [Example 13], the pIC50 is 5.45.
The same measure, in the same setting: the figure for `CC1(c2ccccc2)CN(c2cccc3cc(S(=O)(=O)Nc4ncns4)ccc23)CCO1` (centres unmarked) [Example 15] is 5.89.
Consider `CC1CN(c2cccc3cc(S(=O)(=O)Nc4ncns4)ccc23)CCO1` (centres unmarked) [Example 16], for which the pIC50 was 5.63.
Still for that read-out and setting: the figure for `COC(=O)C1CN(c2cccc3cc(S(=O)(=O)Nc4ncns4)ccc23)CCO1` (centres unmarked) [Example 17, METHYL 4-(6-(N-(1,2,4-THIADIAZOL-5-YL)SULFAMOYL)NAPHTHALEN-1-YL)MORPHOLINE-2-CARBOXYLATE] is 5.34; for `CCC1CN(c2cccc3cc(S(=O)(=O)Nc4ncns4)ccc23)CCO1` (centres unmarked) [Example 18] it is 6.15; for `CN(C)C(=O)C1CN(c2cccc3cc(S(=O)(=O)Nc4ncns4)ccc23)CCO1` (centres unmarked) [Example 19] it is 5.93.
On the same count and under the same terms, the result for `CC(C)(O)C1CN(c2cccc3cc(S(=O)(=O)Nc4ncns4)ccc23)CCO1` (centres unmarked) [Example 20] reads 5.50; that for `O=S(=O)(Nc1ncns1)c1ccc2c(-c3ccc(C(F)(F)F)cc3-c3cn[nH]c3)cccc2c1` [Example 21], 7.70; that for `O=S(=O)(Nc1ncns1)c1ccc2c(-c3ccc(Cl)cc3OC(F)F)cccc2c1` [Example 24], 7.52.
On the same count and under the same terms, the figure for `COc1cc(C(F)(F)F)ccc1-c1cccc2cc(S(=O)(=O)Nc3nccs3)ccc12` [Example 41] is 6.54.
As to `COc1cc(C(F)(F)F)ccc1-c1cccc2cc(S(=O)(=O)Nc3ccncn3)ccc12` [Example 42], the pIC50 is 7.30.
The same measure, in the same setting: the result for `COc1cc(Cl)ccc1-c1cccc2cc(S(=O)(=O)Nc3ccn(CCN(C)C)n3)ccc12` [Example 43] reads 5.31; that for `COc1cc(Cl)ccc1-c1cccc2cc(S(=O)(=O)Nc3ncco3)ccc12` [Example 45], 6.65.
On the same count and under the same terms, the result for `COc1cc(Cl)ccc1-c1cccc2cc(S(=O)(=O)Nc3nccs3)ccc12` [Example 46] reads 7.44.

Staying with this experiment, now noted: read-out: Nav 1.7 IWQ percent inhibition at […]; read-out: Nav 1.7 IWQ percent inhibition at 4.9 μM.
On to `COc1cc(Cl)ccc1-c1cccc2cc(S(=O)(=O)Nc3cc(C)on3)ccc12` [Example 44], for which the inhibition at […] came out at 22.1%.
